US11453640B2, “Small molecules for disrupting the super elongation complex and inhibiting transcription elongation for cancer therapy” (NORTHWESTERN UNIVERSITY, priority 2018, dated 2022)

How the values were obtained:
[1] = Toxicity test in mice (body weight, sickness); type: in vivo; details: 5 doses of 10 mg/kg, monitored 35 days
Experimental: FIG. 14, related to FIG. 7. SEC disruptors delay tumor progression and improve survival of MDA231-LM2 tumor mice. (A) KL-1 and KL-2 inhibit the colony formation of MDA231-LM2 cells in vitro. 5×10^3 MDA231-LM2 cells were seeded in 6-well plates and treated with KL-1 or KL-2 at the indicated doses for 5 days. Crystal violet staining was performed to stain the colonies. (B) KL-1 and KL-2 induce apoptosis in MDA231-LM2 cells. Bar graph depiction of Annexin V positive MDA231-LM2 cells after 24 hr of KL-1 and KL-2 treatments at the indicated concentrations. Data are represented as Mean+/−SD. […] Each individual line indicates the weights of each mouse during toxicity test.

[2] = molecular target: T1, AFF4-CCNT1 interaction (GST-CCNT1 AA 1-300 and biotin-AFF4 peptide AA 32-67) (Homo sapiens, UniProt O60563); experiment: AlphaLISA assay of the AFF4-CCNT1 interaction (Alpha Screen); type: binding
T1 construct: Recombinant GST-CCNT1 (1-300), which was purified by Glutathione Superflow Agarose from Rosetta cells; VCPBIO (peptide synthesis) Addgene P#432; host or cells: Rosetta cells
T1 sequence (O60563 1-300): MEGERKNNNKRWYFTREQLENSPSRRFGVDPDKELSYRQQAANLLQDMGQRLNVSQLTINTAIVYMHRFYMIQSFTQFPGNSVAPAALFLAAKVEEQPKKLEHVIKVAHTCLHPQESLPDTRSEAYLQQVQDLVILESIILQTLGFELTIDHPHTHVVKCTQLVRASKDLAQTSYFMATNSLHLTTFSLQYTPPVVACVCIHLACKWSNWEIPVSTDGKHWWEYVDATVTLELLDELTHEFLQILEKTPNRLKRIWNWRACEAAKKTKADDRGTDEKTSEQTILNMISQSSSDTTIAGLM
Text: FIG. 1. Peptidomimetic identification of disruptors of the AFF4-CCNT1 interaction within the Super Elongation Complex. (A) Schematic for the identification of small molecule inhibitors of the AFF4-CCNT1 interaction using in silico high-throughput screening. Compounds from the ZINC database were docked with the AFF4-CCNT1 structure (4IMY) using a three-tier glide-docking algorithm, which led to 40 candidates. Residues forming the deep binding pocket of CCNT1 are labeled orange and residues of the AFF4 peptide are labeled red. (B) Validation screening identified KL-1 as a potential SEC disruptor using AlphaLISA screening. GST-CCNT1 (AA 1-300) and biotin-labeled AFF4 peptide (AA 32-67) were used to measure the AFF4-CCNT1 interaction with the AlphaLISA assay. (C) Similarity search for KL-1-like molecules identified KL-2. The peptidomimetic potential of KL-1 and KL-2 can be seen by overlaying them with the AFF4 peptide LFAEP structure. (D) Dose-dependent inhibition of KL-1 and KL-2 on AFF4-CCNT1 interaction. The Ki constants of both compounds were measured with the AlphaLISA assays. (E) Treatment of HEK293T cells with KL-1 and KL-2 results in reduced protein levels of SEC components AFF1 and AFF4 but not CDK9 or CCNT1. HEK293T cells were treated with 20 μM of SEC inhibitors KL-1 or KL-2 for 6 hr. 5 μl, 10 and 20 μl cell lysates were loaded and the protein levels of AFF1, AFF4, CCNT1, CDK9 and Tubulin (load control) were determined by western blotting.
FIG. 8, related to FIG. 1. Peptidomimetic identification of disruptors of the AFF4-CCNT1 interaction within the Super Elongation Complex. (A) Schematic of AlphaLISA assay of the AFF4-CCNT1 interaction. Anti-GST AlphaLISA acceptor beads and AlphaScreen streptavidin donor beads (Perkin Elmer) were used to detect the interaction of GST-CCNT1 (AA1-300) and biotin-AFF4 (AA32-67). (B-C) Optimization of the AlphaLISA assay with various biotin-AFF4 peptide and GST-CCNT1 concentrations. No CCNT1 (B) and mutant AFF4 (C) were used as negative controls. Data are represented as Mean+/−SD. (D) Scheme for chemical synthesis of SEC inhibitors KL-1 and KL-2. Reagents and conditions: a. LDA, THF, −78° C., 15 min., then diethyl oxalate, −78° C. to room temperature. b. NaOH, THF/H2O, room temperature, 15 min. c. EEDQ, 5-chloro-2-methylaniline, THF, room temperature, 24 hr. […] 293T cells were treated with 20 μM of KL-1 or KL-2 for 6 hr, and the protein levels of BRD2, BRD4, Pol II (RPB1), SPT5, MED26, MYC, HSP90 (load control) and Tubulin (load control) were measured by western blotting. (F) Treatment of HCT-116 cells with KL-1 and KL-2 reduced protein levels of SEC components AFF1 and AFF4 but not CDK9 or CCNT1. HCT-116 cells were treated with 20 μM of KL-1 or KL-2 for 6 hr, and the protein levels of AFF1, AFF4, CCNT1, CDK9 and Tubulin (load control) were determined by western blotting. (G-H) Treating cells with KL-1 and KL-2 results in reduced levels of AFF 1 and AFF4. FLAG-AFF1 (G) and FLAG-AFF4 (H) were expressed under the Tet-inducible promoter in HEK293T cells. Cells were treated with 20 μM of the indicated inhibitors for 6 hr for western blotting. […] RNA-seq was performed in HEK293T cells treated for 12 hr with 20 μM of the indicated inhibitors. The log2CPM (counts per million) of the SEC subunits were calculated with HTseq. KL-1 and KL-2 had no significant effects on CCNT1, CDK9 and AFF1 expression, but modest increases in the mRNA levels of AFF4 and ELL2 were observed (n=3). Unpaired two-way ANOVA was used for the statistical testes. **,p<0.05, ***,p<0.001.
To test if candidate compounds can disrupt the AFF4-CCNT1 interaction in vitro, we established and optimized a bead-based AlphaLISA assay with recombinant CCNT1 (1-300) protein and synthesized Biotin-AFF4 peptides (AA 32-67) (FIGS. 8A, 8B and 8C).
AlphaLISA Assay. The interaction of CCNT1-AFF4 was measured by Perkin Elmer's bead-based AlphaLISA assays. […]

| SMILES | IC50 [2] | also measured |
| --- | --- | --- |
| Cc1ccc(Cl)cc1NC(=O)C(=O)CC(=O)c1ccc(F)cc1 [KL-2, N-(5-chloro-2-methylphenyl)-4-oxo-(4-fluorophenyl)-2-oxobutanamide] |  | weight loss in mice ([1]; intraperitoneal): does not result in significant weight loss; sign of sickness in mice [1]: no obvious sign of sickness was observed; Ki ([2]; AlphaLISA, IC50 converted to Ki with the Cheng and Prusoff equation, read-out: Ki, inhibition of the AFF4-CCNT1 interaction): 1.5 µM |
| Cc1nccnc1NC(=O)C(=O)CC(=O)c1ccc(F)cc1 [NUCC-0201596] | ≥ 30 µM |  |
| O=C(CC(=O)c1ccc(F)cc1)C(=O)NCc1ccccc1 [NUCC-0201688] | ≥ 30 µM |  |
| O=C(CC(=O)c1ccc(F)cc1)C(=O)NCc1ccncc1 [NUCC-0201689] | ≥ 30 µM |  |
| Cc1nc(NC(=O)C(=O)CC(=O)c2ccc(F)cc2)no1 [NUCC-0201691] | ≥ 60 µM |  |
| O=C(CC(=O)c1ccc(F)cc1)C(=O)Nc1nccs1 [NUCC-0201692] | 20.8 ± 4.2 µM |  |
| COc1cccc(C(=O)CC(=O)C(=O)Nc2ccc(F)c(F)c2)c1 [NUCC-0201921] | 17.4 µM |  |
| COc1cccc(C(=O)CC(=O)C(=O)Nc2ccc(F)cc2)c1 [NUCC-0201924] | 20 µM |  |
| COc1cccc(C(=O)CC(=O)C(=O)Nc2cncnc2C)c1 [NUCC-0201927] | 17.9 ± 2.4 µM |  |
| COc1cccc(C(=O)CC(=O)C(=O)Nc2cccc(OC)c2C)c1 [NUCC-0201929] | 15.7 µM |  |
| COc1cccc(NC(=O)C(=O)CC(=O)c2ccc(F)cc2)c1C [NUCC-0202067] | 21.3 ± 3.1 µM |  |
| O=C(CC(=O)c1ccc(F)cc1)C(=O)NC1CCCC1 [NUCC-0202069] | ≥ 60 µM |  |
| Cc1ccc(Cl)cc1NC(=O)[C@@H](O)CC(=O)c1ccc(F)cc1 [NUCC-0202170] | 30.6 ± 1.4 µM |  |
| CN1CC[C@H](c2c(O)cc(O)c3c(=O)cc(-c4ccccc4Cl)oc23)[C@H](O)C1 [flavopiridol, reference compound] |  | disruption of the AFF4-CCNT1 interaction ([2]; tested at 20 μM): neither the pan-CDK9 kinase inhibitor flavopiridol nor the BET domain inhibitors disrupted the AFF4-CCNT1 interaction |

Further compounds by falling IC50 [2], results first:

| IC50 [2] | SMILES | also measured |
| --- | --- | --- |
| 15.2 ± 8 µM | COc1cccc(C(=O)CC(=O)C(=O)Nc2cc(C(=O)O)ccc2C)c1 [NUCC-0201926] |  |
| 14.8 ± 2 µM | Cc1ccccc1NC(=O)C(=O)CC(=O)c1ccc(F)cc1 [NUCC-0202092] |  |
| 14.4 µM | COc1cccc(C(=O)CC(=O)C(=O)Nc2cccc(Cl)c2)c1 [NUCC-0201925] |  |
| 14.3 µM | COc1cc(NC(=O)C(=O)CC(=O)c2cccc(OC)c2)cc(OC)c1 [NUCC-0201922] |  |
| 12.8 µM | COc1cccc(C(=O)CC(=O)C(=O)Nc2ccc(Cl)c(Cl)c2)c1 [NUCC-0201923] |  |
| 11.4 ± 0.9 µM | O=C(CC(=O)c1ccc(F)cc1)C(=O)Nc1cccc(Cl)c1 [NUCC-0202068] |  |
| 9.88 ± 0.6 µM | O=C(CC(=O)c1ccc(F)cc1)C(=O)Nc1nn[nH]n1 [NUCC-0201690] |  |
| 7.42 ± 0.26 µM | O=C(CC(=O)c1ccc(F)cc1)C(=O)Nc1cncc(F)c1 [NUCC-0201693] |  |
